The values that follow come from US8338582B2, “Anti-HIV immunogens and methods for inducing an immune response” (Fundacao de Amparo a Pesquisa do Estado de Sao Paulo, priority 2005, dated 2012).

Where two headings read alike, the source gives them in different places.

The test system of the experiment is peripheral blood mononuclear cells from HIV-1 seronegative individuals. Particulars: for IFN-γ spots/10^6 PBMC, Average (AV): average of 8 seronegative individuals; for IFN-γ spots/10^6 PBMC, Average (AV) / IFN-γ spots/10^6 PBMC: peptide 5 μM; for IFN-γ spots/10^6 PBMC, AV + 3SD: average plus 3 standard deviations, 8 seronegative individuals. The protocol: Step d) is achieved by synthesizing the peptides representing the epitopes of the present invention, followed by ELISPOT assay to detect IFN-γ-producing cells. For the purposes of the present invention, the positivity cutoff value used is ≧30 SFC IFN-γ/10^6 PBMC, calculated based on the levels of responses of HIV-1 seronegative patients
Synthetic peptide stocks were diluted to 25 mg/mL in dimethylsulphoxide, followed by ELISPOT assays for detection of IFN-γ-producing cells in response to the epitopes using peripheral blood mononuclear cells (PBMC) in 34 HIV-1+ patients of several clinical groups, long-term nonprogressors (LTNP), reconsituted, partial controllers, and progressors. Each epitope was tested in a concentration of 5 μM. The cryopreserved cells were maintained in culture for 16 hours, placed on plates in the presence of the epitopes, incubated for a further 18 hours, washed and ELISPOT plates were developed for the identification of spot-forming cells/Interferon-γ-producing cells (IFN-γ SFC), which were then counted in an automated counter (Zeiss KS ELISpot/Axioplan 2).

Take GKIILVAVHVASGYI [pol 3]: the “IFN-γ spots/10^6 PBMC, Average (AV)” value is recorded as 0.2 spots/10^6 PBMC and the “IFN-γ spots/10^6 PBMC, AV + 3SD” value came out at 2.4 spots/10^6 PBMC. Besides, the “IFN-γ spots/10^6 PBMC” value (seronegative individual C#01) came to 0 spots/10^6 PBMC. The “IFN-γ spots/10^6 PBMC” value (seronegative individual C#02) worked out at 2 spots/10^6 PBMC. In addition, the “IFN-γ spots/10^6 PBMC” value (seronegative individual C#03) is given as 0 spots/10^6 PBMC. Moreover, the “IFN-γ spots/10^6 PBMC” value (seronegative individual C#04) was 0 spots/10^6 PBMC. Further, the “IFN-γ spots/10^6 PBMC” value (seronegative individual C#05) is 0 spots/10^6 PBMC. The “IFN-γ spots/10^6 PBMC” value (seronegative individual C#06) was 0 spots/10^6 PBMC. Moreover, the “IFN-γ spots/10^6 PBMC” value (seronegative individual C#07) is 0 spots/10^6 PBMC. The “IFN-γ spots/10^6 PBMC” value (seronegative individual C#08) came to 0 spots/10^6 PBMC.

In the case of ALFYKLDVVPID [env 3], the “IFN-γ spots/10^6 PBMC, Average (AV)” value was 1.5 spots/10^6 PBMC and the “IFN-γ spots/10^6 PBMC, AV + 3SD” value is 10 spots/10^6 PBMC. Besides, the “IFN-γ spots/10^6 PBMC” value (seronegative individual C#01) is given as 5 spots/10^6 PBMC. The “IFN-γ spots/10^6 PBMC” value (seronegative individual C#02) was determined as 0 spots/10^6 PBMC. For the same sequence, the “IFN-γ spots/10^6 PBMC” value (seronegative individual C#03) is on record as 0 spots/10^6 PBMC. For the same sequence, for the setting “seronegative individual C#04”, the “IFN-γ spots/10^6 PBMC” value was 7 spots/10^6 PBMC. Also, the “IFN-γ spots/10^6 PBMC” value (seronegative individual C#05) amounted to 0 spots/10^6 PBMC. Besides, under “seronegative individual C#06”, the “IFN-γ spots/10^6 PBMC” value is listed as 0 spots/10^6 PBMC. The “IFN-γ spots/10^6 PBMC” value (seronegative individual C#07) was determined as 0 spots/10^6 PBMC. Moreover, the “IFN-γ spots/10^6 PBMC” value (seronegative individual C#08) is recorded as 0 spots/10^6 PBMC.

With DKELYPLASLRSLFG [gag 4], the “IFN-γ spots/10^6 PBMC, Average (AV)” value is 3.7 spots/10^6 PBMC and the “IFN-γ spots/10^6 PBMC, AV + 3SD” value is listed as 17.4 spots/10^6 PBMC. The “IFN-γ spots/10^6 PBMC” value (seronegative individual C#01) is recorded as 0 spots/10^6 PBMC. Also, the “IFN-γ spots/10^6 PBMC” value (seronegative individual C#02) came to 0 spots/10^6 PBMC. Further, the “IFN-γ spots/10^6 PBMC” value (seronegative individual C#03) is 5 spots/10^6 PBMC. The “IFN-γ spots/10^6 PBMC” value (seronegative individual C#04) is 12 spots/10^6 PBMC. The “IFN-γ spots/10^6 PBMC” value (seronegative individual C#05) is 8 spots/10^6 PBMC. Besides, for the setting “seronegative individual C#06”, the “IFN-γ spots/10^6 PBMC” value came to 0 spots/10^6 PBMC. For the same sequence, for the setting “seronegative individual C#07”, the “IFN-γ spots/10^6 PBMC” value worked out at 0 spots/10^6 PBMC. For the same sequence, the “IFN-γ spots/10^6 PBMC” value (seronegative individual C#08) was 5 spots/10^6 PBMC.

On to VLEWRFDSRLAFHHV [nef 1], for which the “IFN-γ spots/10^6 PBMC, Average (AV)” value is 4.4 spots/10^6 PBMC and the “IFN-γ spots/10^6 PBMC, AV + 3SD” value stood at 17.7 spots/10^6 PBMC. The “IFN-γ spots/10^6 PBMC” value (seronegative individual C#01) was 0 spots/10^6 PBMC. Further, under “seronegative individual C#02”, the “IFN-γ spots/10^6 PBMC” value was determined as 3 spots/10^6 PBMC. Also, the “IFN-γ spots/10^6 PBMC” value (seronegative individual C#03) was 7 spots/10^6 PBMC. The “IFN-γ spots/10^6 PBMC” value (seronegative individual C#04) turned out to be 12 spots/10^6 PBMC. In addition, the “IFN-γ spots/10^6 PBMC” value (seronegative individual C#05) is 8 spots/10^6 PBMC. Further, the “IFN-γ spots/10^6 PBMC” value (seronegative individual C#06) worked out at 0 spots/10^6 PBMC. For the same sequence, the “IFN-γ spots/10^6 PBMC” value (seronegative individual C#07) is listed as 0 spots/10^6 PBMC. Besides, the “IFN-γ spots/10^6 PBMC” value (seronegative individual C#08) is reported as 5 spots/10^6 PBMC.

Regarding ELLKTVRLIKFLYQSNP [rev 1], the “IFN-γ spots/10^6 PBMC, Average (AV)” value stood at 3 spots/10^6 PBMC and the “IFN-γ spots/10^6 PBMC, AV + 3SD” value came to 12.9 spots/10^6 PBMC. Further, under “seronegative individual C#01”, the “IFN-γ spots/10^6 PBMC” value is listed as 5 spots/10^6 PBMC. The “IFN-γ spots/10^6 PBMC” value (seronegative individual C#02) is on record as 7 spots/10^6 PBMC. Besides, the “IFN-γ spots/10^6 PBMC” value (seronegative individual C#03) turned out to be 5 spots/10^6 PBMC. The “IFN-γ spots/10^6 PBMC” value (seronegative individual C#04) turned out to be 7 spots/10^6 PBMC. In addition, the “IFN-γ spots/10^6 PBMC” value (seronegative individual C#05) was found to be 0 spots/10^6 PBMC. The “IFN-γ spots/10^6 PBMC” value (seronegative individual C#06) was 0 spots/10^6 PBMC. Also, under “seronegative individual C#07”, the “IFN-γ spots/10^6 PBMC” value was 0 spots/10^6 PBMC. Moreover, the “IFN-γ spots/10^6 PBMC” value (seronegative individual C#08) is reported as 0 spots/10^6 PBMC.

Regarding SLQYLALVALVAPKK [vif 2], the “IFN-γ spots/10^6 PBMC, Average (AV)” value amounted to 3.1 spots/10^6 PBMC and the “IFN-γ spots/10^6 PBMC, AV + 3SD” value worked out at 19.7 spots/10^6 PBMC. In addition, under “seronegative individual C#01”, the “IFN-γ spots/10^6 PBMC” value was 0 spots/10^6 PBMC. Also, the “IFN-γ spots/10^6 PBMC” value (seronegative individual C#02) was found to be 8 spots/10^6 PBMC. The “IFN-γ spots/10^6 PBMC” value (seronegative individual C#03) is 2 spots/10^6 PBMC. Moreover, for the setting “seronegative individual C#04”, the “IFN-γ spots/10^6 PBMC” value came to 0 spots/10^6 PBMC. Further, where the note is “seronegative individual C#05”, the “IFN-γ spots/10^6 PBMC” value was found to be 0 spots/10^6 PBMC. In addition, the “IFN-γ spots/10^6 PBMC” value (seronegative individual C#06) worked out at 0 spots/10^6 PBMC. Besides, the “IFN-γ spots/10^6 PBMC” value (seronegative individual C#07) is 0 spots/10^6 PBMC. Further, the “IFN-γ spots/10^6 PBMC” value (seronegative individual C#08) turned out to be 15 spots/10^6 PBMC.
